Laboratory results from patent US7033604B2, “Composition for topical administration” (Sucampo AG, priority 2001, dated 2006).
Marks after values point to notes of the source that are not given here.

Tests used:
[1] = test system: Experimental Pseudomonas keratitis; experiment: Anti-inflammatory test: slit lamp scoring of conjunctival and corneal inflammation in experimental Pseudomonas keratitis; type: in vivo, Japanese white rabbits; details: for Score (conjunctiva) Mean ± SE: conjunctival inflammation at 48 hours after bacterial inoculation, sum of scores; for Score (conjunctiva) Mean ± SE / Score (cornea) Mean ± SE: 6 eyes; for Score (cornea) Mean ± SE: corneal inflammation at 60 hours after bacterial inoculation, sum of corneal opacity (0–8) and corneal ulcer (0–3)
Experimental: Experimental Pseudomonas keratitis was induced for 12 Japanese white rabbits (13 weeks old, Std: JW/CSK) as described in Test Experiment 1. After bacterial inoculation, the rabbits were divided into 4 groups (three rabbits-six eyes/group). Fifty microliters of each test substance or vehicle was topically applied to both eyes of each animal 4 times a day at intervals of 4 hours beginning 12 hours after the bacterial inoculation. The test substance and vehicle were the same as those used in Test Example 1. Rabbit eyes were examined with a slit lamp biomicroscope, and severity of conjunctival inflammation at 48 hours after bacterial inoculation and corneal inflammation at 60 hours after bacterial inoculation were evaluated by assigning a numerical value to the following signs based on the method described by Kuriyama H et al. Corneal inflammation was evaluated by sums of the scores of corneal opacity (score 0–8) and corneal ulcer (score 0–3). Conjunctival inflammation was evaluated by sums of the scores of redness of palpebral conjunctival inflammation (score 0–4), edema of palpebral conjunctiva (score 0–4), nictitating membrane status (score 0–3) and discharge (score 0–3).

[2] = test system: Pseudomonas aeruginosa IID-1210; experiment: Anti-microbial test: viable bacterial counts in wounded rabbit cornea inoculated with Pseudomonas aeruginosa; type: in vivo; details: for Colony forming units per gram of cornea Mean ± SE: cornea excised 4 hours after administration, Japanese white rabbits, 6 eyes
Experimental: Single colony isolate of Pseudomonas aeruginosa IID-1210 (provided by Department of Ophthalmology, Yokohama City University School of Medicine, Japan) on NAC agar plate was inoculated in 2 mL of heart infusion broth, and kept for overnight at 37° C. One hundred microliters of the overnight culture was inoculated in 10 mL of heart infusion broth, and then grown for about 12 hours at 37° C. with shaking. Twelve Japanese white rabbits (13 weeks old, Std: JW/CSK, Japan SLC, Inc.) were anesthetized by intravenous injection of pentobarbital sodium (25 mg/kg), and then topical anesthesia was made by instillation of 0.4% oxybuprocaine hydrochloride to both eyes. The corneal wound was produced bilaterally using a 6-mm trephine and 27-gauge needle according to the method described by Hatano H et al. (Japanese Review of Clinical Ophthalmology 79: 1153, 1985). Forty microliters of the bacterial suspension prepared above was instilled onto the wounded cornea twice (Day 1, 21:00). After bacterial inoculation, the rabbits were divided into 4 groups (three rabbits-six eyes/group). Fifty microliters of each test substance or vehicle was topically applied to both eyes of each animal once 12 hours after bacterial inoculation (Day 2, 9:00). […] Four hours after administration of test substances, the animals were sacrificed with an intravenous overdose of pentobarbital sodium, eyes were enucleated, and then corneas were excised using a 6-mm trephine. After weighing, each cornea was homogenized in 1 mL of sterile physiological saline. Aliquot (0.1 mL) of each homogenate was plated on NAC agar, and incubated for 24 hours at 37° C. The colonies were then counted. All quantitative cultures were run in triplicate, and the arithmetic mean of three measurements was determined for each cornea. Results were expressed as the number of organisms (determined by measures of colony forming units [CFU]) per gram of corneal weight.

[3] = 0.06% FK-506, 50 microliters topically 4 times a day from 12 hours after inoculation
[4] = 0.3% ofloxacin, 50 microliters topically 4 times a day from 12 hours after inoculation

| SMILES | Effect on conjunctival inflammation (in words) ([1]; 0.06% FK-506, 4 times a day, 48 hours after inoculation) | Effect on corneal inflammation (in words) ([1]; 0.06% FK-506, 4 times a day, 60 hours after inoculation) | Score (conjunctiva) Mean ± SE [1, 3] | Score (cornea) Mean ± SE [1, 3] | Colony forming units per gram of cornea Mean ± SE ([2]; 0.06% FK-506, 50 microliters topically to both eyes once 12 hours after bacterial inoculation) | Effect on viable Pseudomonas counts (in words) ([2]; 0.06% FK-506, single topical application, compared with vehicle treatment) | Score (conjunctiva) Mean ± SE [1, 4] | Score (cornea) Mean ± SE [1, 4] | Colony forming units per gram of cornea Mean ± SE ([2]; 0.3% ofloxacin, 50 microliters topically to both eyes once 12 hours after bacterial inoculation) |
| --- | --- | --- | --- | --- | --- | --- | --- | --- | --- |
| C=CCC1/C=C(\C)CC(C)CC(OC)C2OC(O)(C(=O)C(=O)N3CCCCC3C(=O)OC(/C(C)=C/C3CCC(O)C(OC)C3)C(C)C(O)CC1=O)C(C)CC2OC (stereo not drawn) [FK-506, 17-allyl-1,14-dihydroxy-12-[2-(4-hydroxy-3-methoxycyclohexyl)-1-methylvinyl]-23,25-dimethoxy-13,19,21,27-tetramethyl-11,28-dioxa-4-azatricyclo [22.3.1.0^4,9]octacos-18-ene-2,3,10,16-tetraone] | tended to decrease the conjunctival inflammation | tended to decrease the corneal inflammation | 6.7 ± 0.4 | 6.0 ± 0.0 | 31225 ± 7204 Colony forming units per gram of cornea | decreased the viable Pseudomonas counts as compared with vehicle treatment, but not significantly | – | – | – |
| CC1COc2c(N3CCN(C)CC3)c(F)cc3c(=O)c(C(=O)O)cn1c23 (stereo not drawn) [ofloxacin] | – | – | – | – | – | – | 6.0 ± 0.5 | 2.1 ± 0.4^a) | 0^a),b) Colony forming units per gram of cornea |
